Results taken from patent EP1082099B1, “SURFACTANT FOR USE IN EXTERNAL PREPARATIONS FOR SKIN AND EXTERNAL PREPARATION FOR SKIN CONTAINING THE SAME” (Showa Denko K K, priority 1998, dated 1999).

Columns and labels:
[1] = tested on: three-dimensional skin model; experiment: Skin irritation test: MTT cytotoxicity on three-dimensional cultured skin model; format: cell-based; conditions: test substance in PBS pH 7, 1 hour exposure, 16 hours incubation, read from graph
Description: Using a three-dimensional skin model (trade name: Three-dimensional cultured skin model, manufactured by Gunze), skin irritation tests were performed. […] The test substances were adjusted with PBS (Phosphate Buffer Saline, pH 7) so that they were in various concentrations. To the thus-adjusted test substances was exposed the skin model for 1 hour. Thereafter, the test substances were washed and incubated for 16 hours in a medium attached to the above-described three-dimensional skin model. After the incubation, a solution of MTT (3-(4,5-dimethylthiazol-2-yl)-2,5-diphenyltetrazolium bromide) was added and pigments were extracted with isopropanol rendered acidic with hydrochloric acid, followed by measurement of absorbance at a wavelength of 570 nm. […] This value was called B. The MTT solution was added to PBS and extraction was performed similarly. Absorbance of the extract measured at a wavelength of 570 nm was named C. From these values was calculated cytotoxicity. Calculation was made according to the following equation. Cytotoxicity (%) = (1-(A-c)/(B-C)) x 100 [formula]
Plotting the concentration of a test substance on the axis of abscissa and cytotoxicity on the axis of ordinate, a graph was obtained, from which the concentration of a test compound at 50% cytotoxicity was read.

[2] = Skin penetration test of methylparaben through hairless mouse skin (two-chamber); format: in vitro ADME; conditions: Example 2; donor side phosphate buffer pH 7 with stated composition; after 5 hours
Description: One (donor side) of two chambers separated by a hairless mouse skin was filled with a phosphate buffer (pH 7) having dissolved therein a substance having the composition described in Table 3 and the other (receiver side) was filled with a phosphate buffer solution (pH 7). After 5 hours, the concentration of methylparaben on the receiver side was measured. […] As will be apparent from the results, surfactin suppressed the skin penetration of skin-irritating substances.
One (donor side) of two chambers separated by a hairless mouse skin was filled with a cosmetic having the composition described in Table 6 and the other (receiver side) was filled with a phosphate buffer solution (pH 7). After 5 hours, the concentration of methylparaben on the receiver side was measured.
One (donor side) of two chambers separated by a hairless mouse skin was filled with a cosmetic having the composition described in Table 14 and the other (receiver side) was filled with a phosphate buffer solution (pH 7). After 5 hours, the concentration of methylparaben on the receiver side was measured.

| Structure (SMILES) | Concentration of surfactant at 50% cytotoxicity [1] | Concentration of methylparaben of receiver [2] |
| --- | --- | --- |
| CCCCCCCCCCCCOS(=O)(=O)[O-].[Na+] [SDS, sodium dodecylsulfate, reference compound] | 0.2% | – |
| COC(=O)c1ccc(O)cc1 [0.1% Methylparaben, Methylparaben] | – | 5.7 ppm |
